Data reported in patent US11773127B2, “Compounds and methods for treating bacterial infections” (Washington University, priority 2017, dated 2023).
Where two headings read alike, the source gives them in different places.

Molecular target: T1, FmlHLD (Escherichia coli, UniProt P77588)
T1 construct: 6xHis (C); made in house; host or cells: E. coli C600, periplasm, pTRC99a
Assay: biochemical
Format: binding, E. coli
Details: for inhibitory potency against FmlH, in words: ELISA-based competition assay; for PI100 (percent inhibition): galactoside at 100 μM, 100 µM
Description: Thereafter, wells were incubated with 200 μl blocking buffer (PBS+1% BSA) for 2 hours at 23° C., followed by incubation with 100 μl biotinylated FmlHLD diluted in blocking buffer to 20 μg/ml in the presence or absence of the tested compounds for 1 hr at 23° C. After washing 3× with PBS+0.05% TWEEN-20, 100 μl Streptavidin-HRP conjugate (BD Biosciences; 1:2000 dilution in blocking buffer) was added to each well for 1 hr at 23° C. After a final round of washing, plates were developed with 100 μl Tetramethylbenzidine (TMB, BD Biosciences) substrate, quenched within 1-2 min with 50 μl […], and absorbance measured at 450 nm.
Select top hit compounds and few low-scoring analogs from the virtual screening, as well as synthetic galactosides, were tested in the ELISA-based competition assay for their ability to inhibit binding of FmlHLD to ds-BSM. The ELISA assay was performed using the protocol described in Example 18. […] All compounds were tested at 100 μM; a subset was tested at 10 μM; and the strongest subset was additionally tested at 1 μM. […] Percent inhibition (PI) values are reported as the mean with standard error of the mean for galactosides tested at 100 μM (PI100), 10 μM (PI10), and 1 μM (PI1) in the ELISA-based competition assay. […] The “thio” designation indicates a sulfur linkage between the sugar and the aglycone group, the “phospho” designation indicates a phosphate group attached the C6-hydroxyl group on the sugar, and the “uro” designation indicates galacturonide as the sugar.
The ELISA assay was performed using the protocol described in Example 18. All compounds were tested at 1 μM and a subset was additionally tested at 100 nM. Average percent inhibition (PI) values are reported for compounds tested at 1 μM (PI1) and 100 nM (PI0.1).
Briefly, 1 μg bovine submaxillary mucin (Sigma) in 100 uL PBS were incubated with Immulon 4HBX 96-well plates overnight prior to treatment with 1 mU Arthrobacter ureafaciens sialidase for 1 hour at 37° C. to remove terminal sialic acid sugars. Wells were then blocked with 200 μL PBS+1% BSA for 2 hours at room temperature. Biotinylated FmlH^LD was diluted to 20 μg/mL in blocking buffer and incubated in the presence or absence of compounds serially diluted 2× down eight rows for 1 hour at room temperature. Wells were washed three times with PBS 0.05% TWEEN-20 then incubated with 100 μL of streptavidin-HRP conjugate (BD Biosciences; 1:2,000 dilution in blocking buffer) for one hour. After three additional PBS+0.05% TWEEN washes, plates were developed with 100 μL of tetramethylbenzidine (BD Biosciences) substrate and quenched with 50 μL of 1 M H2SO4. Total bound portion concentration was measured by the absorbance at 450 nm. IC50s were determined using the Graphpad Prism software.
The compounds synthesized herein were tested in the ELISA-based competition assay for their ability to inhibit binding of FmlHLD to ds-BSM. The ELISA assay was performed using the protocol described in Example 18. Compounds were tested at […], 1 μM, and 100 nM. as indicated on the table. […] ND means the corresponding value was not determined for this summary (but may be available elsewhere in the Examples).

[1] = read-out: % Inhibition at [μM] [1], compound at 1 μM, inhibition of FmlHLD binding to ds-BSM
[2] = read-out: PI(1) (average percent inhibition), compound at 1 μM, Table 4
[3] = read-out: % Inhibition at [μM] [10], compound at 10 μM, inhibition of FmlHLD binding to ds-BSM
[4] = read-out: % Inhibition at [μM] [100], compound at 100 μM, inhibition of FmlHLD binding to ds-BSM
[5] = IC50 (μM), Table 5, Gal and GalNAc inhibition of FmlH
[6] = IC50, inhibition of FmlHLD binding to ds-BSM
[7] = mean with standard error of the mean
[8] = read-out: PI10 (percent inhibition), galactoside at 10 μM, mean with standard error of the mean
[9] = read-out: PI100 (percent inhibition), galactoside at 100 μM, mean with standard error of the mean
[10] = IC50 (μM), Table 6, sulfonamides 3078-3090

T1 sequence (P77588 25-182): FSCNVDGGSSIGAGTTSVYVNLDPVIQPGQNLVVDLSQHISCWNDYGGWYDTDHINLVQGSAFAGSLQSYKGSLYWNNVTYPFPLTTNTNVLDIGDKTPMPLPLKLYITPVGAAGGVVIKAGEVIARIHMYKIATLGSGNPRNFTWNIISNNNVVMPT

Compound: CC(C)(C)NC(=O)CN(C(=O)c1cccc2cccnc12)[C@@H]1O[C@H](CO)[C@H](O)[C@H](O)[C@H]1O [AM1181, N-(2-(tert-butylamino)-2-oxoethyl)-N-((2R,3R,4S,5R,6R)-3,4,5-trihydroxy-6-(hydroxymethyl)tetrahydro-2H-pyran-2-yl)quinoline-8-carboxamide]
- inhibition at 1 µM [1]: 10.8%
- inhibition at 1 µM [2]: 10.8%

Compound: CC(=O)N[C@H]1[C@H](Oc2cccc3ccc(C)nc23)O[C@H](CO)[C@H](O)[C@@H]1O [AM1179, N-((2S,3R,4R,5R,6R)-4,5-dihydroxy-6-(hydroxymethyl)-2-((2-methylquinolin-8-yl)oxy)tetrahydro-2H-pyran-3-yl)acetamide]
- inhibition at 1 µM [1]: 25.2%
- inhibition at 1 µM [2]: 25.2%

Compound: OC[C@H]1O[C@@H](Oc2ccccc2Cl)[C@H](O)[C@@H](O)[C@H]1O [Compound 154c]
- inhibition at 1 µM [1]: 7.95%
- inhibition at 10 µM [3]: 20.7%
- inhibition at 100 µM [4]: 90.5%

Compound: OC[C@H]1O[C@@H](Oc2ccc3ccccc3c2)[C@H](O)[C@@H](O)[C@H]1O [2-napthyl Gal, reference compound]
- inhibition at 10 µM [3]: 14.6%
- inhibition at 100 µM [4]: 78.8%

Compound: CC(=O)N[C@H]1[C@H](Oc2ccccc2-c2cccc(F)c2)O[C@H](CO)[C@H](O)[C@@H]1O [AM2028, N-((2S,3R,4R,5R,6R)-2-((3′-fluoro-[1,1′-biphenyl]-2-yl)oxy)-4,5-dihydroxy-6-(hydroxymethyl)tetrahydro-2H-pyran-3-yl)acetamide]
- inhibitory potency against FmlH, in words: equal or slightly reduced potency
- IC50 [5]: 1.48 µM
- inhibition at 1 µM [1]: 11.8%
- inhibition at 1 µM [2]: 11.8%

Compound: CC(=O)N[C@H]1[C@H](Oc2cccc(C(=O)OCc3ccccc3)c2-c2cccc(NS(C)(=O)=O)c2)O[C@H](CO)[C@H](O)[C@@H]1O [AM2141]
- IC50 [6]: 0.18 µM

Compound: CC(=O)N[C@H]1[C@H](Oc2ccccc2-c2cccc(NS(C)(=O)=O)c2)O[C@H](CO)[C@H](O)[C@@H]1O [AM2038, N-((2S,3R,4R,5R,6R)-4,5-dihydroxy-6-(hydroxymethyl)-2-((3′-(methylsulfonamido)-[1,1′-biphenyl]-2-yl)oxy)tetrahydro-2H-pyran-3-yl)acetamide]
- potency relative to matched pair Gal/GalNAc derivative (2038 vs 2043, 2050 vs 3029): about 5 fold
- IC50 [5]: 0.23 µM
- IC50 [6]: 0.271 µM
- greater potency than 29β-NAc (IC50 ratio): 3 fold
- inhibition at 0.1 µM (read-out: % Inhibition at [μM] [0.1], compound at 0.1 μM (100 nM), inhibition of FmlHLD binding to ds-BSM): 16.5%
- inhibition at 1 µM [1]: 81.4%
- inhibition at 0.1 µM (read-out: PI (0.1) (average percent inhibition), compound at 100 nM, Table 4): 16.5%
- inhibition at 1 µM [2]: 81.4%

Compound: OC[C@H]1O[C@@H](Oc2cccc(-c3ccccc3)c2)[C@H](O)[C@@H](O)[C@H]1O [Compound 31β, [1,1′-biphenyl]-3-yl α/β-D-galactopyranoside]
- PI100 (percent inhibition) [7]: 56.9 ± 6.2%
- inhibition at 10 µM [8]: 7.8 ± 5.5%
- inhibition at 100 µM [9]: 57%

Compound: CC(C)S[C@@H]1O[C@H](CO)[C@H](O)[C@H](O)[C@H]1O [36β-thio (IPTG), reference compound]
- inhibition at 100 µM [9]: 23.7 ± 5.3%

Compound: CC(=O)N[C@@H]1[C@H](Oc2cccc(C(=O)OCc3ccccc3)c2-c2cccc(NS(C)(=O)=O)c2)OC(CO)[C@H](O)[C@@H]1O (stereo partly drawn) [Compound 3081, Benzyl 6-(((2S,3S,4R,5R)-3-acetamido-4,5-dihydroxy-6-(hydroxymethyl)tetrahydro-2H-pyran-2-yl)oxy)-3′-(methylsulfonamido)-[1,1′-biphenyl]-2-carboxylate]
- IC50 [10]: 0.18 µM

Compound: CC(=O)N[C@H]1[C@H](Oc2ccc3ccccc3c2-c2cccc(NS(C)(=O)=O)c2)O[C@H](CO)[C@H](O)[C@@H]1O [Compound 3085, N-((2S,3R,4R,5R,6R)-4,5-dihydroxy-6-(hydroxymethyl)-2-((1-(3-(methylsulfonamido)phenyl)naphthalen-2-yl)oxy)tetrahydro-2H-pyran-3-yl)acetamide]
- IC50 [10]: 0.18 µM

Compound: OC[C@H]1O[C@@H](SCCc2ccccc2)[C@H](O)[C@@H](O)[C@H]1O [2-phenylethyl-thio-galactoside, reference compound]
- inhibition at 10 µM [3]: 2.31%
- inhibition at 100 µM [4]: 49.9%

Compound: CC(=O)N[C@H]1[C@H](Oc2ccc([N+](=O)[O-])cc2)O[C@H](CO)[C@@H](O)[C@@H]1O[C@@H]1O[C@H](CO)[C@H](O)[C@H](O)[C@H]1O [Gal-b1-3-PNPGlcNAc, reference compound]
- % Inhibition at [μM] [100] (compound at 100 μM, inhibition of FmlHLD binding to ds-BSM): −3.60%

Compound: N#Cc1ccccc1O[C@H]1O[C@H](CO)[C@H](O)[C@H](O)[C@H]1O [Compound 3α, 2-cyanophenyl α/β-D-galactopyranoside]
- inhibition at 100 µM [9]: 17.8 ± 6.3%

Compound: Cc1ccccc1O[C@@H]1O[C@H](CO)[C@H](O)[C@H](O)[C@H]1O [Compound 135b]
- inhibition at 1 µM [1]: 1.81%
- inhibition at 10 µM [3]: 28.2%
- inhibition at 100 µM [4]: 87.3%

Compound: CC(=O)N[C@H]1[C@H](Oc2cccc(C(F)(F)F)c2-c2cccc(NS(C)(=O)=O)c2)O[C@H](CO)[C@H](O)[C@@H]1O [AM2134]
- IC50 [6]: 0.085 µM

Compound: CC(=O)N[C@H]1[C@H](Oc2ccccc2-c2cc(NS(=O)(=O)C(F)(F)F)ccc2F)O[C@H](CO)[C@H](O)[C@@H]1O [AM2116]
- IC50 [6]: 3.07 µM

Compound: OC[C@H]1O[C@H](Oc2ccc(-c3ccccc3)cc2)[C@H](O)[C@@H](O)[C@H]1O [Compound 32α, [1,1′-biphenyl]-4-yl α/β-D-galactopyranoside]
- inhibition at 10 µM [8]: 22.6 ± 3.9%
- inhibition at 100 µM [9]: 86.5 ± 1.7%

Compound: OC[C@H]1O[C@@H](Oc2c[nH]c3cc(Cl)ccc23)[C@H](O)[C@@H](O)[C@H]1O [Salmon Gal, reference compound]
- inhibition at 100 µM [4]: 41.2%

Compound: OC[C@H]1O[C@@H](Oc2c[nH]c3ccccc23)[C@H](O)[C@@H](O)[C@H]1O [3-indoxyl Gal, reference compound]
- inhibition at 100 µM [4]: 21.7%

Compound: CC(=O)N[C@H]1[C@H](Oc2ccc3ccncc3c2)O[C@H](CO)[C@H](O)[C@@H]1O [AM2002, N-((2S,3R,4R,5R,6R)-4,5-dihydroxy-6-(hydroxymethyl)-2-(isoquinolin-7-yloxy)tetrahydro-2H-pyran-3-yl)acetamide]
- inhibition at 1 µM [1]: 20.2%
- inhibition at 1 µM [2]: 20.2%

Compound: OC[C@H]1O[C@@H](Oc2ccc3ccccc3c2)[C@H](O)[C@@H](O)[C@H]1O [Compound 19β]
- PI100 (percent inhibition) [7]: 78.8 ± 2.1%
- inhibition at 10 µM [8]: 14.6 ± 3.1%
- inhibition at 100 µM [9]: 79%

Compound: CC(=O)N[C@@H]1[C@H](Oc2cccc(C)c2-c2cccc(NS(=O)(=O)N(C)C)c2)OC(CO)[C@H](O)[C@@H]1O (stereo partly drawn) [Compound 3087, N-((2S,3S,4R,5R)-2-((3′-((N,N-dimethylsulfamoyl)amino)-6-methyl-[1,1′-biphenyl]-2-yl)oxy)-4,5-dihydroxy-6-(hydroxymethyl)tetrahydro-2H-pyran-3-yl)acetamide]
- inhibitory potency against FmlH, in words: retain the same activity as the methyl sulfonamides
- IC50 [10]: 0.13 µM

Compound: COC(=O)c1cccc(-c2ccccc2O[C@@H]2O[C@H](CO)[C@H](O)[C@H](O)[C@H]2O)c1 [Compound 30β, 2′-(α/β-D-galactopyranosyloxy)-[1,1′-Biphenyl]-3-carboxylic acid methyl ester]
- PI100 (percent inhibition) [7]: 86.6 ± 0.8%
- inhibition at 1 µM (read-out: PI1 (percent inhibition), galactoside at 1 μM, mean with standard error of the mean): 3.7 ± 3.5%
- inhibition at 10 µM [8]: 22.4 ± 2.6%
- inhibition at 100 µM [9]: 87%
